Earlier results, collected in patent publication US20250049595A1, “ZOTAROLIMUS-ROSUVASTATIN ELUTING BIODEGRADABLE STENT” (priority 2023, published 2025).

Settings: targeted by typical daily dose between 5 and 40 mg

- plasma concentration: 0.5 ng/mL
Compound: CC(C)c1nc(N(C)S(C)(=O)=O)nc(-c2ccc(F)cc2)c1/C=C/[C@@H](O)C[C@@H](O)CC(=O)O [Rosuvastatin]
